Laboratory results taken from US20250154135A1, “M-CHOLINE RECEPTOR AGONIST COMPOUND, PREPARATION METHOD THEREFOR AND USE THEREOF” (NANJING GRITPHARMA CO., LTD., priority 2022, published 2025).
Where “and” joins values, the source holds several entries; their conditions need not be identical. Identical values can stand only once.

How the values were obtained:
[1] = test system: rabbit eyes; test: Irritation to rabbit eyes (Test Example 3); assay type: in vivo; details: 0.88% compared with 3.50%
Description: Irritation: examined concurrently with the pupil diameter.
The numerical results of pupil changes are shown in Tables 3-1 to 3-4, and the changes in eye irritation phenomenon are shown in FIGS. 13 and 14.

[2] = test system: rabbit pupil; test: Rabbit pupil diameter change, pilocarpine p-toluate at different concentrations (Test Example 3); assay type: in vivo
Experimental: Under the condition of normal saline, the onset time, strength of effect, duration of effect, and irritation of 1.25% pilocarpine hydrochloride and different concentrations (0.88%, 1.75%, 3.50%) of pilocarpine p-toluate were tested.
Each rabbit was subjected to eye drop administration in the left eye (using a pipette), with an administration volume of 100 μL.
Number of animals: 6 rabbits per compound.
Administration schedule: single administration.
• the pupil diameter of the left eye of the rabbits was measured at time points of −0.5 h (i.e., half an hour before administration), 5 min, 10 min, 15 min, 0.5 h, 3 h and 4 h relative to administration, with the measurement performed 3 times for each rabbit at each time point.

CC[C@@H]1C(=O)OC[C@@H]1Cc1cncn1C [JQ-6, Pilocarpine p-toluate]
irritation to rabbit eyes [1]: significantly lower than that caused by the 3.50% pilocarpine p-toluate
strength of effect at each time point compared to 1.25% pilocarpine hydrochloride ([2]; 0.88% (half molar concentration of pilocarpine)): demonstrated increased strength of effect at each time point
Percentage change in pupil diameter ([2]; 0.88%, 5 min, average of 6 rabbits): −10.07%
Percentage change in pupil diameter ([2]; 0.88%, 5 min, individual rabbit): −4.80% and −6.70% and −13.54% and −9.41% and −12.03% and −13.93%
Percentage change in pupil diameter ([2]; 0.88%, 10 min, average of 6 rabbits): −36.21%
Percentage change in pupil diameter ([2]; 0.88%, 10 min, individual rabbit): −33.75% and −34.62% and −30.54% and −48.90% and −41.07% and −28.39%
Percentage change in pupil diameter ([2]; 0.88%, 15 min, average of 6 rabbits): −40.86%
Percentage change in pupil diameter ([2]; 0.88%, 15 min, individual rabbit): −43.40% and −41.17% and −36.73% and −43.68% and −50.07% and −30.13%
Percentage change in pupil diameter ([2]; 0.88%, 0.5 h, average of 6 rabbits): −37.44%
Percentage change in pupil diameter ([2]; 0.88%, 0.5 h, individual rabbit): −36.60% and −41.12% and −36.25% and −37.28% and −44.65% and −28.71%
Percentage change in pupil diameter ([2]; 0.88%, 3 h, average of 6 rabbits): −10.34%
Percentage change in pupil diameter ([2]; 0.88%, 3 h, individual rabbit): −9.65% and −14.66% and −12.43% and −7.91% and −14.57% and −2.85%
Percentage change in pupil diameter ([2]; 0.88%, 4 h, average of 6 rabbits): 0.70%
Percentage change in pupil diameter ([2]; 0.88%, 4 h, individual rabbit): 3.67% and −2.65% and 4.83% and −0.54% and −1.39% and 0.26%
strength of effect at each time point compared to 1.25% pilocarpine hydrochloride ([2]; 1.75% (same molar concentration of pilocarpine)): the increase in strength of effect at each time point was more significant
Percentage change in pupil diameter ([2]; 1.75%, 5 min, individual rabbit): −18.36% and −12.49% and −14.04%
Percentage change in pupil diameter ([2]; 1.75%, 10 min, individual rabbit): −44.23% and −37.19% and −44.10%
Percentage change in pupil diameter ([2]; 1.75%, 15 min, individual rabbit): −49.50% and −43.41% and −45.41%
Percentage change in pupil diameter ([2]; 1.75%, 0.5 h, individual rabbit): −47.81% and −42.82% and −44.78%
Percentage change in pupil diameter ([2]; 1.75%, 3 h, individual rabbit): −12.34% and −6.91%
Percentage change in pupil diameter ([2]; 1.75%, 4 h, individual rabbit): −0.45% and −0.05%
strength of effect at each time point compared to 1.25% pilocarpine hydrochloride ([2]; 3.50% (2 times molar concentration of pilocarpine)): significantly enhanced
